As usually defined, the melting point is the temperature of the solid-liquid transition.

In one series the test system is SDH (L. major). As to the kind of experiment: Effect on succinate dehydrogenase of L. major promastigotes. In kind it is biochemical, Leishmania major. From the text:
FIG. 10. Licochalocone A on SDH of L. major promastigotes (membrane rich fraction)

Series [1] can be described thus: Single dose toxicity in rats. In kind it is in vivo. The protocol: Also in rats, LDlow po>1000 mg/kg was found. Studies carried out later in the project using the dosing schedule, also used to measure effects against the malaria parasites, confirmed the very good oral tolerance to all compounds tested.
A further series relates to Peptostreptococcus. As to the kind of experiment: Effect on anaerobic bacteria (growth). In kind it is cell-based. To be noted: at a concentration of 5 μg/ml.
For the next series, the target named is T1, SDH (human MNC) (Homo sapiens, UniProt P31040).
T1 construct: endogenous in cells; host or cells: human blood mononuclear cells (MNC), membrane rich fraction
As to the kind of experiment: Effect on human MNC succinate dehydrogenase. In kind it is biochemical. To be noted: incubation at 28° C. for 5 min.

In a further series the target is FRD (L. major). As to the kind of experiment: Effect on fumarate reductase of L. major promastigotes. The class given is biochemical, Leishmania major. Particulars: incubation at 28° C. for 5 min. The protocol: FIG. 5. Effect of licochalcone A on Leishmania major fumarate reductase. Digitonin treated promastigotes was incubated with licochalcone A at 28° C. 30 min, and the remaining enzyme activity was measured. Data are mean ±SEM from 6 different experiments.
FIG. 6. Effect of licochalcone A on Leishmania major fumarate reductase. KCL-solubilised fumarate reductase was incubated with licochalcone A at 28° C. 30 min, and the remaining enzyme activity was measured. Data are mean ±SEM from 6 different experiments.
Parasites were harvested by centrifugation at 1000 g for 10 min, and were washed 2 times in an isotonic phosphate saline buffer (50 mM sodium phosphate, pH 7.2, 90 mM NaCl, 5 mM KCl). […]
NADH-FRD activity was determined as the rate of NADH-oxidation upon addition of 1 mM fumarate in the KCl-solubilized fraction. The reaction was monitored spectrophotometrically at 340 nm ((=6.2 mM^−1 cm^−1) using 100 μM NADH and usually 0.1 mg protein in both reference and sample cuvettes. The measurement was carried out in a Shimadzu UV-190 double-beam spectrophotometer. Protein concentrations were determined using a Bio-Rad protein assay (Bio-Rad Laboratories, 200 Alfred Nobel Dr. Hercules, Calif. 94547, USA).
KCl solubilized fraction of Leishmania major promastigotes was incubated with different concentrations of various oxygenated chalcones at 28° C. and the remaining FRD activity was measured.

The subject of a further series is Clostridium perfringes. As to the kind of experiment: Effect on anaerobic bacteria (growth). In kind it is cell-based. To be noted: at a concentration of 5 μg/ml.
The next series addresses NDH (human MNC). As to the kind of experiment: Effect on human MNC NADH dehydrogenase. In kind it is biochemical. Particulars: incubation at 28° C. for 5 min. The protocol:
FIG. 15. Effect of licochalcone A on human MNC NADH dehydrogenase. Membrane rich fraction of parasite was incubated with licochalcone A at 28° C. for 5 min, the remaining enzyme activity was measured. Data are mean ±SEM from 4 different experiments.

Another series deals with NDH (J774). As to the kind of experiment: Effect on J774 cells NADH dehydrogenase. In kind it is biochemical. Particulars: incubation at 28° C. for 5 min. The method, then: FIG. 17. Effect of licochalcone A on J774 cells NADH dehydrogenase. Membrane rich fraction of parasite was incubated with licochalcone A at 28° C. for 5 min, the remaining enzyme activity was measured. Data are mean ±SEM from 4 different experiments.

For the next series, the target named is NCC (L. major). As to the kind of experiment: Effect on L. major NADH-cytochrome c reductase. The class given is biochemical, Leishmania major. To be noted: incubation at 28° C. for 5 min. The protocol:
FIG. 13. Effect of licochalcone A on Leishmania major NADH-cycochrome c reductase. Membrane rich fraction of parasite was incubated with licochalcone A at 28° C. for 5 min, the remaining enzyme activity was measured. Data are mean ±SEM from 4 different experiments.

The test system of the next series is Bacteroides fragilis. As to the kind of experiment: Effect on anaerobic bacteria (growth). In kind it is cell-based. Particulars: at a concentration of 5 μg/ml.
The next series has as its target T2, SDH (J774) (Mus musculus, UniProt Q8K2B3).
T2 construct: endogenous in cells; host or cells: J774 cells, membrane rich fraction
As to the kind of experiment: Effect on J774 cells succinate dehydrogenase. The class given is biochemical. Particulars: incubation at 28° C. for 5 min.

The target in another series is NDH (L. major). As to the kind of experiment: Effect on L. major NADH dehydrogenase. Particulars: incubation at 28° C. The class given is biochemical, Leishmania major. An excerpt: FIG. 11. Effect of licochalcone A on Leishmania major NADH dehhydrogenase. […] Data are mean ±SEM from 6 different experiments.
The subject of another series is CHO cells. As to the kind of experiment: Chromosomal aberration assay with CHO cells. Particulars: both with and without metabolic activation (S9 mix). The class given is cell-based.

Marks after values point to notes of the source that are not given here.

T1 sequence (P31040 43-664): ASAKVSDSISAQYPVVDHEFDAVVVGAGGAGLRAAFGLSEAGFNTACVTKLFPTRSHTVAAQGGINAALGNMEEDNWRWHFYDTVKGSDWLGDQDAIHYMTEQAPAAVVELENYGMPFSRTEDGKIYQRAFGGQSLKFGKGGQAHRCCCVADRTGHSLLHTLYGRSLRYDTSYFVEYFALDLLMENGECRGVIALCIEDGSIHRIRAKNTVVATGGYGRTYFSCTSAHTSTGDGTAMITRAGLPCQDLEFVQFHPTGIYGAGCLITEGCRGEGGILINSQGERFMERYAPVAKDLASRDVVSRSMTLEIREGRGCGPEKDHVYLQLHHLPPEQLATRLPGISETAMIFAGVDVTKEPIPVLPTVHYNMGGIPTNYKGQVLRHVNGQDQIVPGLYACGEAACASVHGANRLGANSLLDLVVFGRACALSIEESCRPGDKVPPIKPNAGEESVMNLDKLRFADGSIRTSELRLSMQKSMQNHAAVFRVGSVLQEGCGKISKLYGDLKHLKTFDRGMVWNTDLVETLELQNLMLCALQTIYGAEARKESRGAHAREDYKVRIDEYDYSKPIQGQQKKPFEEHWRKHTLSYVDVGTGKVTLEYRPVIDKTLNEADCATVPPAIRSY
T1 sequence (P21912 29-280 partner): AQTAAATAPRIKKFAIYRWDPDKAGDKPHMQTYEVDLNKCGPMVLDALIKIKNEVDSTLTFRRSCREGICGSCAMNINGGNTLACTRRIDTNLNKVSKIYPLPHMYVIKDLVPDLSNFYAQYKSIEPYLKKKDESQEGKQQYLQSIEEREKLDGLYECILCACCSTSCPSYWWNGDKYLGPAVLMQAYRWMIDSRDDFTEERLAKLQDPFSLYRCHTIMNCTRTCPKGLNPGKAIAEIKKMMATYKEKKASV
T1 sequence (Q99643 30-169 partner): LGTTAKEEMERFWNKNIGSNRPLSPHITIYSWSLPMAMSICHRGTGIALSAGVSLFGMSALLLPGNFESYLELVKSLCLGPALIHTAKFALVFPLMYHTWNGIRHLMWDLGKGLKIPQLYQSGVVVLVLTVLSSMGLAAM
T1 sequence (O14521 57-159 partner): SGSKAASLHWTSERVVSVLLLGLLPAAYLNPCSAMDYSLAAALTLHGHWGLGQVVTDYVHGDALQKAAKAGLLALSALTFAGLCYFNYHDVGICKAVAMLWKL
T2 sequence (Q8K2B3 43-664): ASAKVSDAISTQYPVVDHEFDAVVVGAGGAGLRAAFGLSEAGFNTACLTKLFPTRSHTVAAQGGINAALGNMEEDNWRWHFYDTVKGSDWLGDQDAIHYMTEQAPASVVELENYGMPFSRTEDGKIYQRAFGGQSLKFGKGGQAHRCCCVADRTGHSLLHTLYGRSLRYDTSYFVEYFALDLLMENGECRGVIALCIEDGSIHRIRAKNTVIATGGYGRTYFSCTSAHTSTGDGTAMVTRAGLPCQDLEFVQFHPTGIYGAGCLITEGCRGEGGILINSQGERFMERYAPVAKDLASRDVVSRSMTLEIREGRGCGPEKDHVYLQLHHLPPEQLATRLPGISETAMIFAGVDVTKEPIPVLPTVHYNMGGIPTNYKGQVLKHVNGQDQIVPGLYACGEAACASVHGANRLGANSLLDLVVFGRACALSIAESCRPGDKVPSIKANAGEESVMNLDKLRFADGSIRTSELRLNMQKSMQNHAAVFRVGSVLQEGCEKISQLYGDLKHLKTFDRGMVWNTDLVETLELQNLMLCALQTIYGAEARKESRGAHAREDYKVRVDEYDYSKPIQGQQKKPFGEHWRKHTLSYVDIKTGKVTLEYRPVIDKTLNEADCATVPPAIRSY
T2 sequence (Q9CQA3 31-282 partner): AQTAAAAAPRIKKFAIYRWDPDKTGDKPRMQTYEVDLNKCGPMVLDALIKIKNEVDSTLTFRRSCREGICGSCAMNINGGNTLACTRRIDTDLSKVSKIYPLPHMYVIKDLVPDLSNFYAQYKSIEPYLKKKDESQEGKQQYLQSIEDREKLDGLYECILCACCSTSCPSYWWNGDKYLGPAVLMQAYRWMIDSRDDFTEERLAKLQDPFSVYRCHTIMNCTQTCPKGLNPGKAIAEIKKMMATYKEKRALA
T2 sequence (Q9CZB0 30-169 partner): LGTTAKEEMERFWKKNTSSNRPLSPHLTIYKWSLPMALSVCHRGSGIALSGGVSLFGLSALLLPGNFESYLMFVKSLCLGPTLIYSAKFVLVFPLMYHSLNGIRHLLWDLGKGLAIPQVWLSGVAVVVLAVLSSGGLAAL
T2 sequence (Q9CXV1 57-159 partner): as the sequence (O14521 57-159 partner) above, with L24I, A27G, A34V, M35V, G47S, A63T, Q65P, K69R, K95R counted along it

For the compound `C=CC(C)(C)c1cc(/C=C/C(=O)c2ccc(O)cc2)c(OC)cc1O` [Licochalcone A], the inhibition entry in the series on SDH (L. major) (at 250 μg/mg protein) is “*29% inhibition at 250 μg/mg protein”. Moreover, the IC50 against SDH (L. major) (incubation at 28° C. for 5 min) is >250* μg/mg protein; against SDH (human MNC), 799.7 μg/mg protein; against FRD (L. major) it was 54.7 μg/mg protein; against NDH (human MNC), 454.2 μg/mg protein; in the series on NDH (J774), 547.7 μg/mg protein; against NCC (L. major) it was 387.5 μg/mg protein. The IC50 against SDH (J774) turned out to be 1122.2 μg/mg protein; against NDH (L. major), 415.1 μg/mg protein. This compound yielded an LDlow po in series [1] greater than 1000 mg/kg. Moreover, the “growth of Peptostreptococcus” value in the series on Peptostreptococcus is “completely inhibted”. Further, in the series on Clostridium perfringes, the “growth of Clostridium perfringes” value is “completely inhibted”. Moreover, the “growth of Bacteroides fragilis” value in the series on Bacteroides fragilis was “completely inhibted”.
`C=CCOc1ccc(C(=O)/C=C/c2cc(OC)cc(OC)c2)cc1` [SBC-35ma, 3,5-dimethoxy-4′-allyloxychalcone]: the “chromosomal aberration assay with CHO cells” value with CHO cells was “clear clastogenic response”.
With `COc1cc(/C=C/C(=O)c2ccc(C3CCCCC3)cc2)cc(OC)c1` [PH104, 3,5-dimethoxy-4′-cyclohexylchalcone], the melting point fell in the range of 75.5 to 76.2 °C.

The values are drawn from patent US20030065039A1, “Biologically active 1,3-bis-aromatic-prop-2-en-1-ones, 1,3-bis-aromatic-propan-1-ones, and 1,3-bis-aromatic-prop-2-yn-1-ones” (Statens Serum Institute, priority 1997, published 2003).
